Source: US9170264B2, “Methods of monitoring for adherence to aripiprazole therapy” (Ameritox, Ltd., priority 2013, dated 2015)
Where “and” joins values, the source holds several entries; their conditions need not be identical. Equal values may be shown once. Values belong to the compound of their own block, whether it stands above or below them.

Assays:
[1] = Urine testing of aripiprazole positive patients in a controlled study, LC/MSMS (Example 2); type: in vivo, human; settings: 5 mg q day, individual samples, LLOQ aripiprazole 5, dehydroaripiprazole 5, OPC3373 25 ng/mL
Procedure: (§1) The concentration of any analyte described in the present disclosure may be determined (e.g., measured) by any suitable quantification method. In some embodiments, the concentration of an analyte (e.g., aripiprazole, dehydroaripiprazole, and/or OPC3373) is measured by tandem liquid chromatography-mass spectrometry-mass spectrometry (“LC/MSMS”). In some embodiments, the concentration of an analyte (e.g., aripiprazole, dehydroaripiprazole, and/or OPC3373) is measured by tandem liquid chromatography-High Resolution mass spectrometry (Time of Flight (TOF)) (“LC/MS(TOF)”). In some embodiments, the concentration of an analyte (e.g., aripiprazole, dehydroaripiprazole, and/or OPC3373) is measured by direct injection mass spectrometry-mass spectrometry ([…]) e.g., such systems as RapidFire™ (Agilent) or Laser Diode Thermal Desorption (“LDTD”) (Phytronix) to introduce samples into the mass spectrometer; either triple quadrupole (i.e., MSMS) or exact mass (i.e., Time of Flight, Orbitrap, etc.) instruments
An additional set of aripiprazole positive patients was monitored for levels of aripiprazole, dehyrdroaripiprazole, and OPC3373 in their urine.
Dehydroaripiprazole: 5 ng/mL
These analyses were completed using LC/MSMS.

[2] = cited from earlier work
[3] = Urine testing for compliance over 5 days, patients prescribed 15 mg/day Abilify (Example 5); type: in vivo, human; design: urine concentration: unit not given here; settings: for urine concentration, Avg / urine concentration, Max / urine concentration, Min: n 69 samples
Procedure: as §1
The urine of 23 patients who were prescribed 15 mg of Abilify® (aripiprazole) was tested for compliance over 5 days (Table 7). […] Without OPC3373, only 78% were determined to be positive with patients just being below the reporting cutoffs for both aripiprazole and dehydroaripiprazole. […] Thus, use of OPC3373 as a urine biomarker at this dose adds value to compliance monitoring for Abilify®.

[4] = Urine testing for compliance over 5 days, patients prescribed 2 mg/day Abilify (Example 8); type: in vivo, human; design: Urine concentration, individual subject: unit not given here
Procedure: as §1
The urine of 15 patients who were prescribed 2 mg of Abilify® (aripiprazole) was tested for compliance over 5 days (Table 14). […] Without OPC3373, only 24% were determined to be positive with patients just being below the reporting cutoffs for both aripiprazole and dehydroaripiprazole. Thus, use of OPC3373 as a urine biomarker at this lower dose makes compliance monitoring for Abilify® possible. […] However, OPC3373 in subject M confirmed the subject's adherence to aripirazole therapy despite the low observed creatinine level.

[5] = Urine testing for compliance over 5 days, patients prescribed 5 mg/day Abilify (Example 7); type: in vivo, human; design: Aripiprazole (urine test result) / Dehydroaripiprazole (urine test result): unit not given here; settings: for Aripiprazole (urine test result) / Dehydroaripiprazole (urine test result): human urine, patients prescribed 5 mg/day Abilify
Procedure: as §1
The urine of 25 patients who were prescribed 5 mg of Abilify® (aripiprazole) was tested for compliance over 5 days (Table 11). […] Without OPC3373, only 47% were determined to be positive with patients just being below the reporting cutoffs for both aripiprazole and dehydroaripiprazole. Thus, use of OPC3373 as a urine biomarker at this lower dose adds a great deal of value to compliance monitoring for Abilify®.

[6] = Levels of OPC3373, aripiprazole and dehydroaripiprazole in urine of humans taking chronic doses of aripiprazole (Example 1); type: in vivo, human; settings: for Levels in Human Urine: individual specimens, chronic doses of aripiprazole, LOQ OPC3373 100 ng/mL, dehydroaripiprazole 5 ng/mL, aripiprazole 5 ng/mL
Procedure: as §1
The appearance of OPC3373 (4-[(2-Oxo-1,2,3,4-tetrahydro-7-quinolinyl)oxy]butanoic acid, BMS-337047) as the major aripiprazole metabolite in the urine can be used to help monitor patient adherence to aripiprazole therapy. While analysis of both aripiprazole and the plasma metabolite, dehydroaripiprazole, can be used to monitor patient adherence, the relatively low levels of these molecules in the urine frequently results in “false negatives” in patients known to be taking aripiprazole.

[7] = Urine testing for compliance over 5 days, patients prescribed 30 mg/day Abilify (Example 3); type: in vivo, human; settings: for urine concentration: 30 mg/day Abilify, individual subjects
Procedure: as §1
The urine of 5 patients who were prescribed 30 mg of Abilify® (aripiprazole) was tested for compliance over 5 days (Table 3). […] Without OPC3373, only 93% were determined to be positive with one patient either having stopped taking their medicine between day 4 and 5 or just being below the reporting cutoffs for both aripiprazole and dehydroaripiprazole. Thus, use of OPC3373 as a urine biomarker even at this relatively high dose adds value to compliance monitoring for Abilify®.

[8] = Urine testing for compliance over 5 days, patients prescribed 10 mg/day Abilify (Example 6); type: in vivo, human; settings: n 111 samples
Procedure: as §1
The urine of 37 patients who were prescribed 10 mg of Abilify® (aripiprazole) was tested for compliance over 5 days (Table 9). […] Without OPC3373, only 61% were determined to be positive with patients just being below the reporting cutoffs for both aripiprazole and dehydroaripiprazole. Thus, use of OPC3373 as a urine biomarker at this dose adds value to compliance monitoring for Abilify®.

[9] = Urine testing for compliance over 5 days, patients prescribed 20 mg/day Abilify (Example 4); type: in vivo, human; settings: n 66 samples
Procedure: as §1
The urine of 22 patients who were prescribed 20 mg of Ability (e.g., aripiprazole) was tested for compliance over 5 days (Table 5). […] Without OPC3373, only 85% were determined to be positive with patients just being below the reporting cutoffs for both aripiprazole and dehydroaripiprazole. Thus, use of OPC3373 as a urine biomarker even at this relatively high dose adds value to compliance monitoring for Abilify®.

[10] = Day 1, subjects A-O (one value per subject)
[11] = Day 4, subjects A-O (one value per subject)
[12] = Day 5, subjects A-O (one value per subject)

urine concentration, Avg [3]: 15.29
urine concentration, Max [3]: 76.70
urine concentration, Min [3]: 0.00
Urine concentration, individual subject [4, 10]: 9.0 and 0 (6×) and 7.9
Urine concentration, individual subject [4, 11]: 0
Urine concentration, individual subject [4, 12]: 10.5 and 0 (4×) and 30.9 and 6.1
Range of levels in Human Urine ([6]; over 22 specimens, * below LOQ): 5 to 100 ng/mL
Structure (SMILES): O=C1CCc2ccc(OCCCCN3CCN(c4cccc(Cl)c4Cl)CC3)cc2N1 [Aripiprazole]
Abilify Urine Results [1]: 0 ng/mL and 11.1 ng/mL and 22.3 ng/mL and 9.4 ng/mL and 19.4 ng/mL and 11.6 ng/mL
oral dose excreted as unchanged aripiprazole in faeces ([2]; faeces, humans): 8-18%
time of dosing until steady state serum concentrations are achieved ([2]; in vivo): two
share of a dose represented in plasma [2]: 57%
oral dose excreted as unchanged aripiprazole in urine ([2]; urine, humans): Less than 1%
urine concentration ([3]; Day 1, individual subjects): 52.2 and 0 (6×) and 5.3 and 15.1 and 31.2 and 15.4 and 17.9 and 20.0 and 31.5 and 9.8 and 8.9 and 17.5 and 15.0 and 10.1 and 5.4 and 19.4 and 27.6 and 14.6
urine concentration ([3]; Day 4, individual subjects): 31.7 and 19.5 and 39.3 and 10.2 and 8.9 and 12.3 and 0 (8×) and 40 and 26.7 and 45.3 and 14.5 and 6.2 and 5.7 and 7.9 and 62.3 and 19.0
urine concentration ([3]; Day 5, individual subjects): 22.8 and 0 (5×) and 16.4 and 9.3 and 6.9 and 32.1 and 37.1 and 16.7 and 7.4 and 57.3 and 12.3 and 14.2 (2×) and 7.5 and 17.7 and 25.3 and 5.1 and 76.7 and 9.6
Aripiprazole (urine test result) ([5]; Day 1): 10.1 and 0 (13×) and 9 and 7.5 and 5.0 and 9.7 and 8.5 and 8.8 and 8.4 and 13.1 and 6.4 and 38.4 and 5.4
Aripiprazole (urine test result) ([5]; Day 4): 21.5 and 11.3 and 6.6 (2×) and 0.0 (2×) and 5.2 and 0 (9×) and 32.4 and 13.1 and 15.6 and 6.5 and 10.3 and 7.5 and 5.5 and 9.5 and 11.8
Aripiprazole (urine test result) ([5]; Day 5): 10.2 and 5.1 and 7.3 and 0 (15×) and 14.9 and 0.0 and 5.3 and 10.1 and 12.7 and 9.7 and 31.6
Levels in Human Urine [6]: 9.5 ng/mL and <5.0 ng/mL (9×) and 32.4 ng/mL and 9.7 ng/mL and 53.3 ng/mL and 84.9 ng/mL and 38.7 ng/mL and 10 ng/mL and 0.0 ng/mL (2×) and 17.4 ng/mL and 17.9 ng/mL and 5.0 ng/mL and 39.5 ng/mL

urine concentration ([7]; Day 1): 11.5 and 29.2 and 6.8 and 56.9 and 14.1
urine concentration ([7]; Day 4): 14.1 and 84.8 and 11.0 and 36.3 and 16.6
urine concentration ([7]; Day 5): 0 and 17.0 and 8.9 and 89.7 and 28.1
urine concentration, Avg ([7]; 30 mg/day, n 15 samples): 28.33 ng/mL
urine concentration, Max ([7]; 30 mg/day, n 15 samples): 89.70 ng/mL
urine concentration, Min ([7]; 30 mg/day, n 15 samples): 0.00 ng/mL
urine concentration, Avg [3]: 8.76
urine concentration, Max [3]: 33.30
urine concentration, Min [3]: 0.00
urine concentration, Max [8]: 64.8
urine concentration, Min [8]: 0
urine concentration, avg [8]: 6.27
Urine drug/metabolite concentration, Extremes ([4]; Day 1): 0-7.4
Urine drug/metabolite concentration, Mean +/- SD ([4]; Day 1): 0.5 +/− 1.9
Urine drug/metabolite concentration, Median ([4]; Day 1): 0
Urine concentration, individual subject [4, 10]: 0
Urine drug/metabolite concentration, Extremes ([4]; Day 4): 0-0
Urine drug/metabolite concentration, Mean +/- SD ([4]; Day 4): 0 +/− 0
Urine drug/metabolite concentration, Median ([4]; Day 4): 0
Urine concentration, individual subject [4, 11]: 0
Urine drug/metabolite concentration, Extremes ([4]; Day 5): 0-0
Urine drug/metabolite concentration, Mean +/- SD ([4]; Day 5): 0 +/− 0
Urine drug/metabolite concentration, Median ([4]; Day 5): 0
Urine concentration, individual subject [4, 12]: 0 (13×) and 10.7 and 0.0
urine concentration, Avg ([4]; n 45 samples): 0.24
urine concentration, Max ([4]; n 45 samples): 10.7
urine concentration, Min ([4]; n 45 samples): 0
Urine drug/metabolite concentration, Extremes ([5]; 5 mg/day Abilify, Day 1): 0-6.5
Urine drug/metabolite concentration, Mean +/- SD ([5]; 5 mg/day Abilify, Day 1): 2.3 +/− 3.2
Urine drug/metabolite concentration, Median ([5]; 5 mg/day Abilify, Day 1): 0
Urine drug/metabolite concentration, Extremes ([5]; 5 mg/day Abilify, Day 4): 0-6.1
Urine drug/metabolite concentration, Median ([5]; 5 mg/day Abilify, Day 4): 0
Urine drug/metabolite concentration, Extremes ([5]; 5 mg/day Abilify, Day 5): 0-8.2
Urine drug/metabolite concentration, Median ([5]; 5 mg/day Abilify, Day 5): 0
urine concentration, Avg ([5]; 5 mg/day Abilify, n 75 samples): 1.96
urine concentration, Max ([5]; 5 mg/day Abilify, n 75 samples): 17.1
urine concentration, Min ([5]; 5 mg/day Abilify, n 75 samples): 0
Range of levels in Human Urine ([6]; over 22 specimens, * below LOQ): 5 to 75 ng/mL
urine concentration, Avg [9]: 12.30
urine concentration, Max [9]: 91.40
urine concentration, Min [9]: 0.00
Structure (SMILES): O=c1ccc2ccc(OCCCCN3CCN(c4cccc(Cl)c4Cl)CC3)cc2[nH]1 [Dehydroaripiprazole, dehydroaripiprazole]
Abilify Urine Results [1]: 0 ng/mL (3×) and 6.5 ng/mL and 5.2 ng/mL and 6.4 ng/mL
share of a dose represented in plasma [2]: 20%
urine concentration ([3]; Day 1, individual subjects): 27.9 and 0 (6×) and 21 and 10.1 and 5.9 and 11.4 (2×) and 12.8 and 25.4 and 12.3 and 6.7 and 6.1 and 5.5 and 9.6 and 5.2 and 5.1 and 14.6 and 6.6
urine concentration ([3]; Day 4, individual subjects): 16.8 and 7.4 and 20.7 and 7.5 and 0 (11×) and 24 and 21.0 and 10.1 and 25.8 and 8.6 and 8.1 and 14.3 and 8.0
urine concentration ([3]; Day 5, individual subjects): 12.8 and 0 (9×) and 5.2 and 17.0 and 24.1 (2×) and 23.1 and 23.9 and 33.3 and 12.3 and 6.5 and 11.2 and 16.6 and 0.0 and 24.9
Dehydroaripiprazole (urine test result) ([5]; Day 1): 6.6 and 0 (20×) and 5.1 and 7.4 and 5.3 and 8.7
Dehydroaripiprazole (urine test result) ([5]; Day 4): 10.2 and 0 (19×) and 17.1 and 8.0 and 7.5 and 7.4 and 8.4
Dehydroaripiprazole (urine test result) ([5]; Day 5): 5.7 and 0 (19×) and 5.2 and 5.5 and 15.8 and 8.2 and 15.1
Levels in Human Urine [6]: <5.0 ng/mL (7×) and 5.1 ng/mL (2×) and 14.1 ng/mL and 0.0 ng/mL (5×) and 17.8 ng/mL and 20.1 ng/mL and 5.9 ng/mL and 0 ng/mL and 15.8 ng/mL and 8.8 ng/mL and 56.1 ng/mL

Range of levels in Human Urine ([6]; human, in vivo): 10*-1500 ng/mL
Structure (SMILES): O=C(O)CCCOc1ccc2c(c1)NC(=O)CC2 [OPC3373, 4-[(2-Oxo-1,2,3,4-tetrahydro-7-quinolinyl)oxy]butanoic acid]
share of a dose represented in plasma [2]: 2%
recovered from a dose as urinary metabolite ([2]; urine, reported by Baselt): 19%
